“And” between values parts separate entries of the source, which are not always exact repeats. Identical values can stand only once. “Also recorded” adds a separate entry of the source. Square brackets hold non-standard residues; d marks the D form. Peptide text beside a SMILES is read from it.
How the values were obtained:
[1] = tested on: primary mouse keratinocytes (1° MK); experiment: UVB-evoked Ca++ signaling in primary mouse keratinocytes (fluo-4); format: cell-based; conditions: for ET1-augmented UVB-induced Ca++ transients: co-exposure to ET1; for UVB-evoked Ca++ signal: GSK205 20 μM
Description: Ca++ imaging of 1° MK was conducted following routine procedures. For UVB stimulation, a customized device was built. The system comprised a printed circuit board for electrical interconnects and mechanical support and an ultraviolet light-emitting diode (UV LED).
The operating wavelength was 295 nm (FIG. 2A), with a full-width half-max of 12 nm. The optical power was 500 mW. The focal point was aimed at the plane of the upper surface of the quartz coverslip, which was used to minimize UV absorption along the optical path towards the cells (FIG. 2A-C). The optical intensity at the focal point was estimated to be 150 mW/mm^2.
(§1) Ca++ imaging of mouse 1° MK in response to chemical activation of TRPV4 was conducted after loading with 2 μM fura2-AM, following a ratiometric Ca2+ imaging protocol with 340/380 nm […] for dual excitation. Ratios of emissions were acquired at 0.5 Hz. ΔR/R0 was determined as the fraction of the increase of a given ratio over baseline ratio, divided by baseline ratio. For stimulation of cells with UVB, where fura-2 was not suitable because of the proximity of stimulation with 340/380 nm and 295 nm, 2 μM fluo4-AM was used instead. Ca++ imaging was carried out at 488 nm excitation, acquisition of emissions at 0.5 Hz, expressed as ΔF/F0. In the custom-built UV optical system, UV LEDs were capped with a ball lens, a transparent optical window in the shape of a hemispherical lens (FIG. 2B). The LED output optical beam focused at 15-20 mm from the lens, with a spot diameter of approximately 1.5-2.0 mm (FIG. 2C). […] The thermal equilibration stage was set for physiological temperature.

[2] = tested on: primary mouse keratinocytes (1° MK); experiment: ET1 secretion by non-stimulated primary mouse keratinocytes (ELISA); format: cell-based
Description: FIGS. 8A-8D: Central role for KC TRPV4 in UVB-evoked Ca^++ signaling and nocifensive behavior—ET1-related supplementary findings. (FIG. 8A) Augmentation of GSK101-evoked Ca^++ signaling by ET1. Shown are averaged Ca^++ measurements (fura-2) in response to 5 nM GSK101. Note the increase in signal in response to co-exposure to ET1. (FIG. 8B) ET1 secretion by non-stimulated 1° MK depends on TRPV4 and PLC. Shown are relative ET1 concentrations (determined by ELISA, pg/mL; vehicle-treated and WT control normalized to 100) in supernatant of non-stimulated 1° MK. Note the clear dependence on TRPV4, as indicated by a 50% reduction in Trpv4^−/− 1° MK. […] There is also down-regulation of ET1 secretion by a specific inhibitor of PLC (U73122), and by an ET-convertase inhibitor, CGS35066, which served as a control compound. In addition, PLC-inhibitor robustly affects ET1 secretion in WT and Trpv4^−/− 1° MK. (FIG. 8C) ET1 expression by UVB-exposed 1° MK depends on TRPV4 and PLC—immunocytochemistry. Shown is specific ET1 immunolabeling in 1° MK, exposed to UVB using the UVB-LEDs, as for Ca^++ imaging. Use of the UVB-LED device precluded application of a ET1 ELISA, only irradiated cells could be examined. […] (FIG. 8D) ET1 expression by UVB-exposed 1° MK depends on TRPV4 and PLC—quantification of immunocytochemistry.

[3] = tested on: primary mouse keratinocytes (1° MK); experiment: ET1 immunocytochemistry in UVB-exposed primary mouse keratinocytes; format: cell-based; conditions: 295 nm UVB-LED
Description: 1° MK were exposed to UVB using the UV optical system (295 nm LED). 24 hours later the cells were fixed and fluorescently immunolabeled for ET1. Digital images were captured and subjected to morphometry.
Mouse keratinocytes were cultured on collagen coated quartz coverslips and then stimulated from the bottom using the previously mentioned UV optical system using the 295 nm LED. 24 hours later the cells were fixed in 4% formaldehyde in PBS for 20 minutes, permeabilized with 0.1% Triton X-100 in PBS for 10 minutes, washed, then blocked in 10% normal goat serum in PBS for 45 minutes. Coverslips were incubated overnight with primary antibody mouse anti-ET1 (1:200; Abcam), washed three times in PBS and incubated with secondary antibody for 2 hours at 25° C. Coverslips were washed three times in PBS, once with double-distilled H2O. Digital images were captured using a 40× immersion lens on the BX61 Olympus upright microscope. Morphometric analysis was conducted using ImageJ freeware with tailored regions-of-interest.

TRPV4 (rat) = biological target: T1, TRPV4 (rat) (Rattus norvegicus, UniProt Q9ERZ8); experiment: Ca++ imaging in N2a cells with directed expression of TRPV4, activation with GSK101; format: cell-based
T1 construct: expressed in transfected cells; host or cells: N2a (mouse neuroblastoma) cells
Excerpt: FIGS. 26A-26B: Assessment of compounds in N2a cells with directed expression of TRPV4. […] The number on each bar corresponds to average peak ΔCa++ concentrations in ≈100 cells. […] Plot generated from averaged peak ΔCa++ concentration of 75 cells per data-point.

TRPV4 [4] = biological target: TRPV4 (Homo sapiens, UniProt Q9HBA0); experiment: TRPV4-mediated calcium influx in N2a cells with targeted expression of human TRPV4; format: cell-based; parameters: expressed in transfected cells; host or cells: N2a cells; conditions: 2.5 μM inhibitor, pre-incubation 10 min, 10 nM GSK101
[5] = tested on: Trpv4−/− mice, whisker-pad injection of formalin; experiment: Formalin-evoked trigeminal irritant pain, systemic (i.p.) compound, Trpv4−/− mice; format: in vivo, mouse; conditions: 25 mg/kg i.p.
Description: FIGS. 31A-31D: 16-8 and 16-19 effectively attenuate formalin-evoked trigeminal irritant pain. (FIG. 31A) Time-course of nocifensive behavior in WT mice following whisker-pad injection of 4% formalin. The mice were pre-injected (i.p., 10 mg/kg; 15 min before formalin) with GSK205, 16-8 or 16-19. Note effective reduction of nocifensive behavior in the late “neural” phase by compounds 16-8, 16-19, not by GSK205. (FIG. 31B) Cumulative response binned into 3 phases: acute phase (0-5 min), interphase (5-15 min), and late “neural” phase (15-45 min). […] (FIG. 31C) As in (FIG. 31A), but also including Trpv4^−/− mice. Compounds were applied i.p. 15 min before formalin challenge, at 10 mg/kg except established TRPA1 blocker, A967079 (25 mg/kg). Previously-established attenuated nocifensive behavior in early and late phase in Trpv4^−/− mice was recapped, which was reduced further by TRPA1 blocker, A967079. (FIG. 31D) As in (FIG. 31B), plus inclusion of Trpv4^−/− mice. Robust effects of TRPA1-blocker, A967079, were mimicked equi-potently by 16-8 and 16-19 for early phase, and by 16-8 for late phase, partially by 16-19 for late phase. (FIG. 31A, FIG. 31C) show averaged behavioral metrics per time-point, bars in (FIG. 31B, FIG. 31D) represent mean±SEM; for (D) *p<0.05; #P<0.005, one-way ANOVA; for all panels n=5-8 mice/group.
Compounds were tested for their effect in reducing pain using an in vivo pain model in mice. For mouse formalin-evoked irritant behavior measurements, mice were well-fed, well-rested, and tested at the same time of day, at the same time-point of their circadian rhythm. They were allowed to acclimate to a plexiglas chamber for at least 30 min before testing, and received 10 μL subcutaneous injection of 4% of formalin (diluted from an aqueous solution of commercial 37% formaldehyde with normal saline (NS)) through a 30-gauge needle into the right whiskerpad, as further detailed in Luccarini et al. (J. Pain, 2006, 7, 908-914). Normal saline was used as control injection. After injection, mice were immediately placed back into the chamber and the rubbing behavior was recorded by a private consumer-type video-camera for a 45 min observation period. The recording time was divided into 9 blocks of 5 min, and a nociceptive score was determined per block by measuring the time that the animals spent rubbing the injected area predominantly with the ipsilateral fore-paw and rarely with hind-paw. This rubbing behavior with fore-paw is evoked by pain, which is distinct from itch behavior. Behavioral analysis was conducted by observers blinded to treatment.
We observed significant residual irritant-pain behavior in all phases of the formalin model in Trpv4^−/− mice, consistent with our previous report^13 (FIG. 31C,D). […] A reference TRPA1-inhibitory compound, A967079, was used at 25 mg/kg body weight as a positive control to inhibit TRPA1, based on a previous report^38. Reduction of pain behavior in Trpv4^−/− mice was striking, more than 50% in the late neural phase. […] We conclude that compound 16-8 also functions as a potent TRPA1-inhibitor in an in-vivo irritant pain model specifically designed to assess the contribution of TRPA1 to trigeminal irritant pain, and at least as potent as an established reference TRPA1-antagonistic compound.

[6] = tested on: WT and oil-treated iKO mice; experiment: Nocifensive behavior after ET1 footpad injection (von Frey); format: in vivo, mouse; conditions: 10 μL 100 nM ET-1 intraplantar
Description: ET1 injections: After determining base-line withdrawal thresholds, each animal received an intraplantar injection of 10 μL 100 nM ET-1 plus contralateral vehicle. Thresholds were again evaluated 1 hour after injection.
Hindpaw mechanical withdrawal thresholds were determined by the automated von Frey hair method, using a 0.5 mm diameter stainless steel filament, part of an automated plantar touch stimulator (Ugo Basile, Modena, Italy). Relevant detail included pre-test acclimatization in a quiet room for 30 min, conducting the test at the same time of day and blinded observers. The stimulus was delivered to the hindpaw, automatically discontinued upon withdrawal, and its intensity recorded automatically. 6-8 trials per animal were conducted, with equal exposure of both hindpaws, leading to an average withdrawal threshold. Results are reported as […], which was calculated by subtracting post-treatment from pre-treatment measurements, expressed as % or relative to 1.0.

TRPV4 [7] = biological target: T2, TRPV4 (Mus musculus, UniProt Q9EPK8); experiment: Ca++ transients in primary mouse keratinocytes on chemical activation of TRPV4 (GSK101, 4α-PDD); format: cell-based; conditions: 1° MK
T2 construct: endogenous in cells; host or cells: primary mouse epidermal keratinocytes (1° MK)
Description: as §1, with “temperature. We confirmed the non-thermal nature of UVB stimulation using the customized 295 nm LED device in a dedicated experiment (FIG. 2D), thus confirming the specific modality of stimulation as UVB.” for “temperature.”

T1 sequence (Q9ERZ8 whole entry): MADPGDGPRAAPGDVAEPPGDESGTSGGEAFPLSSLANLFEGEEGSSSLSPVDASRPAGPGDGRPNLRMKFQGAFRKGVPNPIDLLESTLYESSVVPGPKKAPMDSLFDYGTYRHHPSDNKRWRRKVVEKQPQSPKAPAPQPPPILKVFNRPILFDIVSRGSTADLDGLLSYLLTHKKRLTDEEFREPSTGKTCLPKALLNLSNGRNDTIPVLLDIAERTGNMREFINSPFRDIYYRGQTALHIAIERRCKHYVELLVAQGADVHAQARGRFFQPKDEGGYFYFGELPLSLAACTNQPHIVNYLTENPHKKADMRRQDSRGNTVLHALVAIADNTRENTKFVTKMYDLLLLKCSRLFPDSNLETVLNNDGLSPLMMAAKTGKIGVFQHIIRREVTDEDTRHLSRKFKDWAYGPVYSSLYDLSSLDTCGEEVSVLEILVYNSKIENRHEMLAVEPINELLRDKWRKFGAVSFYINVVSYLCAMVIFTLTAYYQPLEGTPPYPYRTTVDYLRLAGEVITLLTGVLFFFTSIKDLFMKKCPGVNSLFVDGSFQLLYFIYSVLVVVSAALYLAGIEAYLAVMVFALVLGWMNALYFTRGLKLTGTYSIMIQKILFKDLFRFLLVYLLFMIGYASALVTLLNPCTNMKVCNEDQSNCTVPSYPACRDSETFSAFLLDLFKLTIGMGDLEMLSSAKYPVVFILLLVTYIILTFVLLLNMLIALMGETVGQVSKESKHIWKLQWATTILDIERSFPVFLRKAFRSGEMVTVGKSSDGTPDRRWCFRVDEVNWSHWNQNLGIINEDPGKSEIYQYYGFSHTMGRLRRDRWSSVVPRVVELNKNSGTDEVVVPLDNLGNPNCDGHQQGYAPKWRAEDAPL
T2 sequence (Q9EPK8 whole entry): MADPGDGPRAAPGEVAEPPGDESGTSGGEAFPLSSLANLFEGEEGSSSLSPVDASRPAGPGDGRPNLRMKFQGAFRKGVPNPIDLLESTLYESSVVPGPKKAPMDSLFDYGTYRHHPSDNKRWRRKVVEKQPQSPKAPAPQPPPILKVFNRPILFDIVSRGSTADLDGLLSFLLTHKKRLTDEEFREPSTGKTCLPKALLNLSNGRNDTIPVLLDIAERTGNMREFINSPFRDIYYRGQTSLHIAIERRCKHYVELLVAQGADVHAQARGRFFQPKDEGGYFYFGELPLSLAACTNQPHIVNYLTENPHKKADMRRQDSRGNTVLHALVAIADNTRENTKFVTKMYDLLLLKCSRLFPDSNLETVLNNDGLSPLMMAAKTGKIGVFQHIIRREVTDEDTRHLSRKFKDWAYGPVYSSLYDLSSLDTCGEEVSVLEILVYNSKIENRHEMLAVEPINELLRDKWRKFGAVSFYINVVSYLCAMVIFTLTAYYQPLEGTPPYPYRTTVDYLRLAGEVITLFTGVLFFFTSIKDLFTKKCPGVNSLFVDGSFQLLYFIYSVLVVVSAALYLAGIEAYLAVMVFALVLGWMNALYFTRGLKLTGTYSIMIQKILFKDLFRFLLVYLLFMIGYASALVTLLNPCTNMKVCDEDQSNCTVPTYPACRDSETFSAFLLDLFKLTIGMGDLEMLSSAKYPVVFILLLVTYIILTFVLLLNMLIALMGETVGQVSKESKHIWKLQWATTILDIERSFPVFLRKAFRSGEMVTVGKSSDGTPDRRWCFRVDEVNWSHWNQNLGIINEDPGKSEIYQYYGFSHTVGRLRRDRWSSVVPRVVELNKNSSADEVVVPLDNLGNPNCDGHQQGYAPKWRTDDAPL
Sequence of TRPV4 (Homo sapiens, UniProt Q9HBA0) (Q9HBA0 whole entry): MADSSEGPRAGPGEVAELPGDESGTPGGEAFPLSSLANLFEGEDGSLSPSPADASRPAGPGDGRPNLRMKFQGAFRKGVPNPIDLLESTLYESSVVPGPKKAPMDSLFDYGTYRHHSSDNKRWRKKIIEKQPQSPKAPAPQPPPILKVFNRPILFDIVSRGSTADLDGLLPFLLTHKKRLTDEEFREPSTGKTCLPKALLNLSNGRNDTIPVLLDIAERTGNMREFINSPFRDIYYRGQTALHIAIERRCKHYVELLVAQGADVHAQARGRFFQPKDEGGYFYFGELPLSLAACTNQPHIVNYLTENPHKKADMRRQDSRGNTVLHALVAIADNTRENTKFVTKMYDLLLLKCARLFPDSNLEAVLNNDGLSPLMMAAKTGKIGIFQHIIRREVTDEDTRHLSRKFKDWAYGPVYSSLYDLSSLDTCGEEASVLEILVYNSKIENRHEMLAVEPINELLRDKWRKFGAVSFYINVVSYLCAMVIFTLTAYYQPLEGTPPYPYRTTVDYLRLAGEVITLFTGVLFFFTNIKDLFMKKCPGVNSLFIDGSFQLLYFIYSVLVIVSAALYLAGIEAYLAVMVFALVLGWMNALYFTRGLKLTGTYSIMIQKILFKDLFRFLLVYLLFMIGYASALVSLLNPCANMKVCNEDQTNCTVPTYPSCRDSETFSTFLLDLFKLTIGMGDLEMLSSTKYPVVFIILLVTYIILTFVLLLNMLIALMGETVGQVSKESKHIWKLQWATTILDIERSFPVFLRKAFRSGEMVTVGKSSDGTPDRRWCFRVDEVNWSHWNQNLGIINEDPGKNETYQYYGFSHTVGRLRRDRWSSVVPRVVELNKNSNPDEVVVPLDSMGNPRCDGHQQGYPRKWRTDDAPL

## CC(C)C[C@@H]1NC(=O)[C@@H](C(C)C)NC(=O)[C@@H]2CCCN2C(=O)[C@@H](CC(=O)O)NC(=O)[C@@H](Cc2c[nH]c3ccccc23)NC1=O [BQ123] (cyclo(L[dW][dD]P[dV]))
[1]
  ET1-augmented UVB-induced Ca++ transients: attenuated

## CCCC[C@@H](NC(=O)[C@@H](Cc1cn(C(=O)OC)c2ccccc12)NC(=O)[C@H](CC(C)(C)C)NC(=O)N1[C@H](C)CCC[C@@H]1C)C(=O)O [BQ788]
[1]
  ET1-augmented UVB-induced Ca++ transients: attenuated

## O=C(O)C(Cc1ccc2c(c1)oc1ccccc12)NCP(=O)(O)O (centres unmarked) [CGS35066]
[1]
  UVB-evoked Ca++ signal: significantly diminished
[2]
  ET1 secretion, supernatant of non-stimulated 1° MK: down-regulation
[3]
  ET1 immunoreactivity in UVB-exposed 1° MK: significant down-regulation

## CCN(CCc1ccc(Nc2nc(-c3cccnc3)cs2)cc1)Cc1ccccc1 [Compound 16-18]
TRPV4 (rat); N2a cells, rat TRPV4, 5 nM GSK101, averaged peak ΔCa++, read-out: IC50, inhibition of TRPV4-mediated Ca++ influx
  IC50: 810 nM and 590 nM
TRPV4 (rat); from IC50 values, rat TRPV4 in N2a cells
  increased potency versus parental compound GSK205: ~5 fold
TRPV4 (rat); inhibitor 5 μM, 5 nM GSK101
  inhibition of TRPV4-mediated Ca++ influx, first round screening: two most potent
TRPV4 [4]
  inhibition of TRPV4-mediated calcium influx (peak calcium concentration): most potent

## CCC(=N\O)/C(C)=C/c1ccc(F)cc1 [Compound A967079, reference compound]
[5]
  reduction of pain behavior in the late neural phase: more than 50%

## COc1ccc2c(c1)CC[C@@H]1[C@@H]2CC[C@]2(C)[C@@H](NCCCCCCN3C(=O)C=CC3=O)CC[C@@H]12 [Compound U73122]
[1]
  UVB-evoked Ca++ signal: virtually eliminated; also recorded: strongly reduced
[2]
  ET1 secretion, supernatant of non-stimulated 1° MK: down-regulation
[3]
  ET1 immunoreactivity in UVB-exposed 1° MK: significant down-regulation

## C=C(C)CCO[P@@](=O)(O)OP(=O)(O)O [IPP, isopentenyl pyrophosphate]
[1]
  UVB-evoked Ca++ signal: not inhibited

## CC(C)NCCN(C(C)C)S(=O)(=O)c1ccc(Cl)cc1Cl [RN1734]
[2]
  ET1 secretion, supernatant of non-stimulated 1° MK: significant down-regulation
[3]
  ET1 immunoreactivity in UVB-exposed 1° MK: significant down-regulation

## ET1: endothelin-1 peptide, cognate ligand of endothelin receptors
[1]
  UVB-evoked Ca++ signal: significant increase
[6]
  mechanical withdrawal after footpad injection: significant levels of mechanical allodynia
TRPV4 [7]; 5 nM GSK101, GSK205 20 μM
  GSK101-evoked Ca++ transient: augmented
TRPV4 [7]; fura-2
  4α-PDD-evoked Ca++ transient: significant increase
